Laboratory results published in ChEMBL document CHEMBL5036317, “Identification of Unique Quinazolone Thiazoles as Novel Structural Scaffolds for Potential Gram-Negative Bacterial Conquerors” (J Med Chem, 2021).
≈ marks a conversion by molar mass, not a printed value. Calls of active or inactive are those of the source. The calls are words filed in the database; no cut-off is given here.

Experiments:
Pseudomonas aeruginosa [1] = assay: Induction of ROS generation in Pseudomonas aeruginosa measured after 6 hrs by DCFH-DA staining based assay; format: functional, organism-based
Klebsiella pneumoniae = assay: Antibacterial activity against Klebsiella pneumoniae assessed as inhibition of bacterial growth measured after 24 hrs by two-fold serial dilution method; format: functional
Escherichia coli [2] = assay: Antibacterial activity against Escherichia coli assessed as inhibition of bacterial growth measured after 24 hrs by two-fold serial dilution method; format: functional
Staphylococcus aureus [3] = assay: Antibacterial activity against Staphylococcus aureus ATCC 29213 assessed as inhibition of bacterial growth measured after 24 hrs by two-fold serial dilution method; format: functional
Pseudomonas aeruginosa [4] = assay: Antibacterial activity against Pseudomonas aeruginosa ATCC 27853 assessed as inhibition of bacterial growth measured after 24 hrs by two-fold serial dilution method; format: functional
Cell membrane [5] = assay: Induction of outer membrane permeabilization in Escherichia coli assessed as increase in NPN uptake by measuring increase in fluorescence intensity incubated for 5 mins by NPN-dye based fluorescence analysis
Staphylococcus aureus [6] = assay: Antibacterial activity against methicillin-resistant Staphylococcus aureus assessed as inhibition of bacterial growth measured after 24 hrs by two-fold serial dilution method; format: functional
Pseudomonas aeruginosa [7] = assay: Antibacterial activity against Pseudomonas aeruginosa assessed as inhibition of bacterial growth measured after 24 hrs by two-fold serial dilution method; format: functional
Staphylococcus aureus [8] = assay: Antibacterial activity against Staphylococcus aureus ATCC 25923 assessed as inhibition of bacterial growth measured after 24 hrs by two-fold serial dilution method; format: functional
Escherichia coli [9] = assay: Antibacterial activity against Escherichia coli assessed as reduction in metabolic activity at 1 to 6 times MIC measured after 6 hrs by alamar blue assay; format: functional, organism-based
Acinetobacter baumannii = assay: Antibacterial activity against Acinetobacter baumanii assessed as inhibition of bacterial growth measured after 24 hrs by two-fold serial dilution method; format: functional
Calf thymus DNA [10] = assay: Binding affinity to calf thymus DNA assessed as assessed as compound-DNA complex formation by measuring hypochromic shift by UV-visible absorption spectrophotometric method; format: tissue-based; conditions: Bos taurus
Staphylococcus aureus [11] = assay: Antibacterial activity against Staphylococcus aureus assessed as inhibition of bacterial growth measured after 24 hrs by two-fold serial dilution method; format: functional
Enterococcus faecalis = assay: Antibacterial activity against Enterococcus faecalis assessed as inhibition of bacterial growth measured after 24 hrs by two-fold serial dilution method; format: functional
Cell membrane [12] = assay: Induction of cytoplasmic membrane depolarization in Escherichia coli assessed as increase in fluorescence intensity at 0 to 6 times MIC by DiSC3-5 dye based fluorescence assay; format: subcellular
Pseudomonas aeruginosa [13] = assay: Antibacterial activity against Pseudomonas aeruginosa assessed as reduction in metabolic activity at 1 to 6 times MIC measured after 6 hrs by alamar blue assay; format: functional, organism-based
Cell membrane [14] = assay: Induction of cell membrane disruption in Pseudomonas aeruginosa assessed as reduction in LDH activity at 1 to 4 times MIC measured after 6 hrs; format: subcellular
Escherichia coli [15] = assay: Antibiofilm activity against Escherichia coli assessed as reduction in biofilm biomass at 0 to 6 times MIC measured after 24 hrs by crystal violet staining based assay; format: functional, organism-based
Cell membrane [16] = assay: Induction of cell membrane disruption in Escherichia coli assessed as increase in protein leakage at 1 to 6 times MIC measured after 6 hrs by Bradford assay
Escherichia coli [17] = assay: Induction of ROS generation in Escherichia coli measured after 6 hrs by DCFH-DA staining based assay; format: functional, organism-based
Escherichia coli [18] = assay: Antibacterial activity against Escherichia coli assessed as drug resistance treated for 16 serial passages and measured every 24 hrs; format: functional, organism-based
[19] = Haemolytic activity in human erythrocytes incubated for 2 hrs; format: ADME, cell-based, Erythrocyte
Cell membrane [20] = assay: Induction of cell membrane disruption in Pseudomonas aeruginosa assessed as increase in protein leakage at 1 to 6 times MIC measured after 6 hrs by Bradford assay
Cell membrane [21] = assay: Induction of cytoplasmic membrane depolarization in Pseudomonas aeruginosa assessed as increase in fluorescence intensity at 0 to 6 times MIC by DiSC3-5 dye based fluorescence assay; format: subcellular
Pseudomonas aeruginosa [22] = assay: Antibiofilm activity against Pseudomonas aeruginosa assessed as reduction in biofilm biomass at 0 to 6 times MIC measured after 24 hrs by crystal violet staining based assay; format: functional, organism-based
Cell membrane [23] = assay: Induction of outer membrane permeabilization in Pseudomonas aeruginosa assessed as increase in NPN uptake by measuring increase in fluorescence intensity incubated for 5 mins by NPN-dye based fluorescence analysis
Calf thymus DNA [24] = assay: Binding affinity to calf thymus DNA assessed as reduction in acridine orange-DNA complex formation by competitive binding assay; conditions: Bos taurus
Escherichia coli [25] = assay: Antibacterial activity against Escherichia coli ATCC 25922 assessed as inhibition of bacterial growth measured after 24 hrs by two-fold serial dilution method; format: functional
Cell membrane [26] = assay: Induction of inner membrane permeabilization in Pseudomonas aeruginosa assessed as increase in PI uptake by measuring increase in fluorescence intensity incubated for 30 mins by propidium iodide staining based fluorescence analysis
Pseudomonas aeruginosa [27] = assay: Antibacterial activity against Pseudomonas aeruginosa assessed as drug resistance treated for 16 serial passages and measured every 24 hrs; format: functional, organism-based
Cell membrane [28] = assay: Induction of cell membrane disruption in Escherichia coli assessed as reduction in LDH activity at 1 to 4 times MIC measured after 6 hrs; format: subcellular
Cell membrane [29] = assay: Induction of inner membrane permeabilization in Escherichia coli assessed as increase in PI uptake by measuring increase in fluorescence intensity incubated for 30 mins by propidium iodide staining based fluorescence analysis
Escherichia coli [30] = assay: Antibacterial activity against Escherichia coli assessed as drug resistance by measuring fold change in MIC treated for 16 serial passages and measured every 24 hrs; format: functional
Pseudomonas aeruginosa [31] = assay: Antibacterial activity against Pseudomonas aeruginosa assessed as drug resistance by measuring fold change in MIC treated for 16 serial passages and measured every 24 hrs; format: functional

SMILES: O=C(/C(=C/c1ccc(C(F)(F)F)cc1)n1cnc2cc(Cl)ccc2c1=O)c1nccs1
- Activity (Pseudomonas aeruginosa [1]): Dose-Dependent Effect
- MIC (Klebsiella pneumoniae): 1 µg/mL (≈ 2.17 µM)
- MIC (Escherichia coli [2]): 1 µg/mL (≈ 2.17 µM)
- MIC (Staphylococcus aureus [3]): 1 µg/mL (≈ 2.17 µM)
- MIC (Pseudomonas aeruginosa [4]): 1 µg/mL (≈ 2.17 µM)
- Activity (Cell membrane [5]): Dose-Dependent Effect
- MIC (Staphylococcus aureus [6]): 4 µg/mL (≈ 8.66 µM)
- MIC (Pseudomonas aeruginosa [7]): 1 µg/mL (≈ 2.17 µM)
- MIC (Staphylococcus aureus [8]): 2 µg/mL (≈ 4.33 µM)
- Activity (Escherichia coli [9]): Active
- MIC (Acinetobacter baumannii): 8 µg/mL (≈ 17.3 µM)
- Activity (Calf thymus DNA [10]): Active
- MIC (Staphylococcus aureus [11]): 32 µg/mL (≈ 69.3 µM)
- MIC (Enterococcus faecalis): 2 µg/mL (≈ 4.33 µM)
- Activity (Cell membrane [12]): Active
- Activity (Pseudomonas aeruginosa [13]): Active
- Activity (Cell membrane [14]): Active
- Activity (Escherichia coli [15]): Active
- Activity (Cell membrane [16]): Active
- Activity (Escherichia coli [17]): Dose-Dependent Effect
- Activity (Escherichia coli [18]): inactive
- HC50 at 2 h [19]: > 250 µg/mL
- Activity (Cell membrane [20]): Active
- Activity (Cell membrane [21]): Active
- Activity (Pseudomonas aeruginosa [22]): Active
- Activity (Cell membrane [23]): Dose-Dependent Effect
- Activity (Calf thymus DNA [24]): Active
- MIC (Escherichia coli [25]): 2 µg/mL (≈ 4.33 µM)
- Activity (Cell membrane [26]): Dose-Dependent Effect
- Activity (Pseudomonas aeruginosa [27]): inactive
- Activity (Cell membrane [28]): Active
- Activity (Cell membrane [29]): Dose-Dependent Effect

SMILES: CCn1cc(C(=O)O)c(=O)c2cc(F)c(N3CCNCC3)cc21 [NORFLOXACIN]
- MIC (Klebsiella pneumoniae): 2 µg/mL (≈ 6.26 µM)
- MIC (Escherichia coli [2]): 4 µg/mL (≈ 12.5 µM)
- fold change (FC) (Escherichia coli [30]): 32
- MIC (Staphylococcus aureus [3]): 1 µg/mL (≈ 3.13 µM)
- MIC (Pseudomonas aeruginosa [4]): 0.5 µg/mL (≈ 1.57 µM)
- fold change (FC) (Pseudomonas aeruginosa [31]): 32
- MIC (Staphylococcus aureus [6]): 8 µg/mL (≈ 25.1 µM)
- MIC (Pseudomonas aeruginosa [7]): 4 µg/mL (≈ 12.5 µM)
- MIC (Staphylococcus aureus [8]): 2 µg/mL (≈ 6.26 µM)
- MIC (Acinetobacter baumannii): 2 µg/mL (≈ 6.26 µM)
- MIC (Staphylococcus aureus [11]): 4 µg/mL (≈ 12.5 µM)
- MIC (Enterococcus faecalis): 4 µg/mL (≈ 12.5 µM)
- MIC (Escherichia coli [25]): 2 µg/mL (≈ 6.26 µM)

SMILES: O=C(/C(=C/c1ccc(C(F)(F)F)cc1)n1cnc2c(Cl)cc(Cl)cc2c1=O)c1nccs1
- MIC (Klebsiella pneumoniae): 1 µg/mL (≈ 2.01 µM)
- MIC (Escherichia coli [2]): 4 µg/mL (≈ 8.06 µM)
- MIC (Staphylococcus aureus [3]): 8 µg/mL (≈ 16.1 µM)
- MIC (Pseudomonas aeruginosa [4]): 1 µg/mL (≈ 2.01 µM)
- MIC (Staphylococcus aureus [6]): 4 µg/mL (≈ 8.06 µM)
- MIC (Pseudomonas aeruginosa [7]): 8 µg/mL (≈ 16.1 µM)
- MIC (Staphylococcus aureus [8]): 8 µg/mL (≈ 16.1 µM)
- MIC (Acinetobacter baumannii): 1 µg/mL (≈ 2.01 µM)
- MIC (Staphylococcus aureus [11]): 128 µg/mL (≈ 258 µM)
- MIC (Enterococcus faecalis): 64 µg/mL (≈ 129 µM)
- HC50 at 2 h [19]: > 250 µg/mL
- MIC (Escherichia coli [25]): 4 µg/mL (≈ 8.06 µM)

SMILES: O=C(/C(=C/c1ccc(F)cc1)n1cnc2cc(Cl)ccc2c1=O)c1nccs1
- MIC (Klebsiella pneumoniae): 512 µg/mL (≈ 1240 µM)
- MIC (Escherichia coli [2]): 16 µg/mL (≈ 38.8 µM)
- MIC (Staphylococcus aureus [3]): 2 µg/mL (≈ 4.86 µM)
- MIC (Pseudomonas aeruginosa [4]): 2 µg/mL (≈ 4.86 µM)
- MIC (Staphylococcus aureus [6]): 4 µg/mL (≈ 9.71 µM)
- MIC (Pseudomonas aeruginosa [7]): 2 µg/mL (≈ 4.86 µM)
- MIC (Staphylococcus aureus [8]): 4 µg/mL (≈ 9.71 µM)
- MIC (Acinetobacter baumannii): 256 µg/mL (≈ 622 µM)
- MIC (Staphylococcus aureus [11]): 8 µg/mL (≈ 19.4 µM)
- MIC (Enterococcus faecalis): 4 µg/mL (≈ 9.71 µM)
- HC50 at 2 h [19]: > 250 µg/mL
- MIC (Escherichia coli [25]): 4 µg/mL (≈ 9.71 µM)
